# Data from patent US12384797B2, “Thioeno[3,2-b] pyridin-7-amine compounds for treating familial dysautonomia” (PTC THERAPEUTICS, INC., priority 2019, dated 2025).
# Tested on: Elongator complex protein 1 (ELP1, also referred to as IKBKAP)
# Test: IKBKAP-HTRF assay (IKBKAP protein in lysates of FD patient-derived fibroblasts)
# Type: cell-based, human
# Details: 48 hours incubation, 7-point concentration curve
# Description: The assay is used for the quantitative determination of Elongator complex protein 1 (ELP1, also referred to as IKBKAP) concentration in cell lysates using the HTRF® (Homogeneous Time-Resolved Fluorescence) technology. IKBKAP is detected in a sandwich HTRF assay by use of an anti-IKAP antibody labeled with a donor and an anti-IKAP antibody labeled with an acceptor.
# Cells were thawed and incubated in DMEM-10% FBS for 72 hours. Cells were trypsinized, counted, and re-suspended to a concentration of 50,000 cells/mL in DMEM-10% FBS. A 199 μL aliquot of the cell suspensions were plated at 10,000 cells per well in a 96 well microtiter plate and incubated for 3 to 5 hours. […] Test compounds were serially diluted 3.16-fold in 100% DMSO to generate a 7-point concentration curve. A 1 μL aliquot of 200× compound solution was transferred to cell-containing wells, and cells were incubated for 48 hours in a cell culture incubator (37° C., 5% CO2, 100% relative humidity). Triplicate samples were set up for each compound concentration. After 48 hours, the supernatant was removed from the cells and 50 μL of the 1×LB4 lysis buffer, containing protease inhibitors, was added to the cells and incubated with shaking at room temperature for 1 hour. A 36 μL aliquot of this lysate was subsequently transferred to the 384-well plate containing 4 μL of the antibody solution (1:50 dilution of anti IKAP d2 and anti-IKAP K(9+8) in detection buffer). The 384-well plate was then centrifuged for 1 minute to bring the solutions to the bottom of the plate and incubated overnight at 4° C. Fluorescence for each well of the plate at 665 nm and 620 nm was measured was on the EnVision plate reader (Perkin Elmer). The ΔF for each sample is calculated by:
# [formula] wherein Signal is the normalized fluorescence for each sample well and Blank is the average normalized average fluorescence for the Blank control wells.
# The maximum fold increase (MFI) in IKBKAP protein abundance for compounds of Formula (I) or a form thereof relative to the vehicle control are provided in Table 1. MFI was calculated by dividing the ΔF value for each sample well by the sample ΔF for the vehicle control wells.
# The EC2x for IKBKAP protein expression obtained from the 7-point concentration curve generated for each test compound according to the protocol in Biological Example 1 are also provided in Table 1. The term “EC2x for IKBKAP protein expression” is defined as the concentration of test compound that is effective in producing two times the amount of IKBKAP protein in a FD patient cell compared to the amount produced from the DMSO vehicle control.
Compound,EC2x for IKBKAP protein expression (concentration producing two times the amount of IKBKAP protein vs DMSO vehicle control),MFI (maximum fold increase in IKBKAP protein abundance relative to the vehicle control)
"C[C@H](F)[C@H](N)Cc1sc2c(NCc3nccs3)cc(Cl)nc2c1Br [Compound 125, 2-[(2R,3S)-2-amino-3-fluorobutyl]-3-bromo-5-chloro-N-[(1,3-thiazol-2-yl)methyl]thieno[3,2-b]pyridin-7-amine]",***** (≤0.005 μM is indicated by five stars (*****)),***** (>4.9 is indicated by five stars (*****))
"COc1cccc(NC(=O)[C@H](N)Cc2sc3c(NCc4ccco4)cc(Cl)nc3c2C)c1 [Compound 144, 3-(5-chloro-7-{[(furan-2-yl)methyl]amino}-3-methylthieno[3,2-b]pyridin-2-yl)-N-(3-methoxyphenyl)-D-alaninamide]",**** (between >0.005 μM and ≤0.02 μM is indicated by four stars (****)),***** (>4.9 is indicated by five stars (*****))
"Cc1c(C[C@@H](N)C(=O)N(C)c2ccccc2)sc2c(NCc3ccco3)cc(Cl)nc12 [Compound 141, 3-(5-chloro-7-{[(furan-2-yl)methyl]amino}-3-methylthieno[3,2-b]pyridin-2-yl)-N-methyl-N-phenyl-D-alaninamide]",*** (between >0.02 μM and ≤0.5 μM is indicated by three stars (***)),**** (between >3.9 and ≤4.9 is indicated by four stars (****))
"2-[(2R)-2-amino-3-fluoropropyl]-5-chloro-3-methyl-N-[(1,3-thiazol-2-yl)methyl]thieno[3,2-b]pyridin-7-amine [Compound 69]",***** (≤0.005 μM is indicated by five stars (*****)),***** (>4.9 is indicated by five stars (*****))
"CC[C@H](N)Cc1sc2c(NCc3ccco3)cc(Cl)nc2c1C [Compound 19, 2-[(2S)-2-aminobutyl]-5-chloro-N-[(furan-2-yl)methyl]-3-methylthieno[3,2-b]pyridin-7-amine]",***** (≤0.005 μM is indicated by five stars (*****)),***** (>4.9 is indicated by five stars (*****))
"N#CC[C@H](N)Cc1sc2c(NCc3cccs3)cc(Cl)nc2c1Cl [Compound 106, (3S)-3-amino-4-(3,5-dichloro-7-{[(thiophen-2-yl)methyl]amino}thieno[3,2-b]pyridin-2-yl)butanenitrile]",***** (≤0.005 μM is indicated by five stars (*****)),***** (>4.9 is indicated by five stars (*****))
"Cc1c(C[C@H](C)N)sc2c(NCc3ccco3)ccnc12 [Compound 34, 2-[(2S)-2-aminopropyl]-N-[(furan-2-yl)methyl]-3-methylthieno[3,2-b]pyridin-7-amine]",**** (between >0.005 μM and ≤0.02 μM is indicated by four stars (****)),***** (>4.9 is indicated by five stars (*****))
"2-[(2R)-2-amino-3-fluoropropyl]-5-chloro-3-cyclopropyl-N-[(thiophen-2-yl)methyl]thieno[3,2-b]pyridin-7-amine [Compound 77]",*** (between >0.02 μM and ≤0.5 μM is indicated by three stars (***)),**** (between >3.9 and ≤4.9 is indicated by four stars (****))
"Cc1c(C[C@H](C)N)sc2c(NCc3cccs3)cc(Cl)nc12 [Compound 28, 2-[(2S)-2-aminopropyl]-5-chloro-3-methyl-N-[(thiophen-2-yl)methyl]thieno[3,2-b]pyridin-7-amine]",***** (≤0.005 μM is indicated by five stars (*****)),***** (>4.9 is indicated by five stars (*****))
"N[C@@H](CO)Cc1sc2c(NCc3ccco3)cc(Cl)nc2c1Br [Compound 41, (2R)-2-amino-3-(3-bromo-5-chloro-7-{[(furan-2-yl)methyl]amino}thieno[3,2-b]pyridin-2-yl)propan-1-ol]",***** (≤0.005 μM is indicated by five stars (*****)),***** (>4.9 is indicated by five stars (*****))
"C[C@H](N)Cc1sc2c(NCc3ccco3)cc(C#N)nc2c1C#N [Compound 50, 2-[(2S)-2-aminopropyl]-7-{[(furan-2-yl)methyl]amino}thieno[3,2-b]pyridine-3,5-dicarbonitrile]",**** (between >0.005 μM and ≤0.02 μM is indicated by four stars (****)),**** (between >3.9 and ≤4.9 is indicated by four stars (****))
"N[C@@H](CO)Cc1cc2nc(Cl)cc(NCc3ccco3)c2s1 [Compound 17, (2R)-2-amino-3-(5-chloro-7-{[(furan-2-yl)methyl]amino}thieno[3,2-b]pyridin-2-yl)propan-1-ol]",***** (≤0.005 μM is indicated by five stars (*****)),**** (between >3.9 and ≤4.9 is indicated by four stars (****))
"Cc1c(NC[C@H](C)N)sc2c(NCc3cccs3)cc(Cl)nc12 [Compound 163, N^2-[(2S)-2-aminopropyl]-5-chloro-3-methyl-N^7-[(thiophen-2-yl)methyl]thieno[3,2-b]pyridine-2,7-diamine]",*** (between >0.02 μM and ≤0.5 μM is indicated by three stars (***)),**** (between >3.9 and ≤4.9 is indicated by four stars (****))
"Cc1c(C[C@@H](N)CO)sc2c(NCc3ccco3)cc(Cl)nc12 [Compound 58, (2R)-2-amino-3-(5-chloro-7-{[(furan-2-yl)methyl]amino}-3-methylthieno[3,2-b]pyridin-2-yl)propan-1-ol]",***** (≤0.005 μM is indicated by five stars (*****)),***** (>4.9 is indicated by five stars (*****))
"C[C@H](N)C(F)c1sc2c(NCc3nccs3)cc(Cl)nc2c1Br (stereo partly drawn) [Compound 161, 2-[(2S)-2-amino-1-fluoropropyl]-3-bromo-5-chloro-N-[(1,3-thiazol-2-yl)methyl]thieno[3,2-b]pyridin-7-amine]",***** (≤0.005 μM is indicated by five stars (*****)),*** (between >2.9 and ≤3.9 is indicated by three stars (***))
